Tests used:
Alopecurus myosuroides = assay: Herbicidal post-emergence action; assay type: in vivo; settings: post-emergence method; 0.32 kg of active substance per hectare
Protocol: (§1) Seeds of monocotyledonous and dicotyledonous weeds and crop plants were placed in sandy loam in wood-fibre pots, covered with soil and cultivated in a greenhouse under good growth conditions. 2 to 3 weeks after sowing, the test plants were treated at the one-leaf stage, where the compounds (I) according to the invention, formulated in the form of wettable powders (WP), were applied by spraying as aqueous suspension or emulsion at a water application rate of 600 l/ha (converted) with the addition of 0.2% of wetting agent to the green parts of the plants. After the test plants had been kept in the greenhouse under optimum growth conditions for about 3 weeks, the activity of the preparations was rated visually in comparison to untreated controls in per cent (%). For example, 100% activity=the plants have died, 50% herbicidal activity or damage=the plants have been reduced by 50% or the plant mass has been reduced by 50%, 0% activity=like control plants.

Avena fatua = assay: Herbicidal post-emergence action; assay type: in vivo; settings: post-emergence method; 0.32 kg of active substance per hectare
Protocol: as §1

COC(=O)C[C@@H](c1cncc(F)c1)[C@H](C#N)c1cccc(F)c1 [erythro-2-Ibb732]
activity against Alopecurus myosuroides (Alopecurus myosuroides): 90-100% | activity against Avena fatua (Avena fatua): 90-100%

From patent publication US9661848B2, “Substituted 4-cyan-3-(pyridyl)-4-phenylbutanoates, method for the production thereof and uses as herbicides and plant growth regulators” (BAYER CROPSCIENCE AG, priority 2012, dated 2017)
